Values after ≈ are worked out from the molar mass of the structure shown.
Columns and labels:
A-549 = assay: In vitro cytotoxicity, MTT assay; assay type: cell-based; details: Homo sapiens, A549, A-549 (lung), 48 hours
NCI-H1437 = assay: In vitro cytotoxicity, MTT assay; assay type: cell-based; details: Homo sapiens, NCI-H1437 (lung), 48 hours
NCI-H838 = assay: In vitro cytotoxicity, MTT assay; assay type: cell-based; details: Homo sapiens, NCI-H838 (lung), 48 hours
MCF-7 = assay: In vitro cytotoxicity, MTT assay; assay type: cell-based; details: Homo sapiens, MCF7, MCF-7 (breast), 48 hours
MDA-MB-231 = assay: In vitro cytotoxicity, MTT assay; assay type: cell-based; details: Homo sapiens, MDA-MB-231 (breast), 48 hours
SK-OV-3 = assay: In vitro cytotoxicity, MTT assay; assay type: cell-based; details: Homo sapiens, SK-OV-3 (ovary), 48 hours
[1] = system: subcutaneously implanted solid tumors induced by MDA-MB-231 cells; assay: In vivo antitumor efficacy test, breast tumor-bearing nude mice; details: MDA-MB-231 tumors in nude mice, intraperitoneally twice a week for 28 days; paclitaxel 5 mg/kg alone or paclitaxel 0.2 mg/kg + geraniol 45 mg/kg; p<0.001
Method: The antitumor efficacy of composition comprising paclitaxel and geraniol against the subcutaneously implanted solid tumors induced by MDA-MB-231 cells in nude mice was evaluated. Treatments were initiated when the tumors inoculated in nude mice reached a tumor volume of 50-100 mm^3, and this day was designated as Day 1. Mice were divided into 3 different groups consisting of five mice in each group, and administered intraperitoneally with normal saline (control), paclitaxel (5 mg/kg) in normal saline, or composition comprising paclitaxel (0.2 mg/kg) and geraniol (45 mg/kg) twice a week for 28 days. The size of tumor and change of body weight of each mouse were recorded.
The anticancer efficacy of the paclitaxel-geraniol composition was studied in breast tumor-bearing nude mice. […] In the control, mice were injected with normal saline. In Paclitaxel, mice were injected with paclitaxel (5 mg/kg) in normal saline. In the Paclitaxel-geraniol composition, mice were injected with composition comprising paclitaxel (0.2 mg/kg) and geraniol in normal saline.

| SMILES | IC50 (A-549) | IC50 (NCI-H1437) | IC50 (NCI-H838) | IC50 (MCF-7) | IC50 (MDA-MB-231) | IC50 (SK-OV-3) | tumor growth (size of tumor) versus control group [1] |
| --- | --- | --- | --- | --- | --- | --- | --- |
| O=c1[nH]cc(F)c(=O)[nH]1 [Composition 5-FU, Fluorouracil] | 5.9 µg/mL (≈ 45.4 µM) | > 100 µg/mL | 12.1 µg/mL (≈ 93 µM) | 38.7 µg/mL (≈ 298 µM) | 328 µg/mL (≈ 2520 µM) | 66.6 µg/mL (≈ 512 µM) | – |
| CC(=O)O[C@H]1C(=O)[C@@]2(C)[C@H]([C@H](OC(=O)c3ccccc3)[C@]3(O)C[C@H](OC(=O)[C@H](O)[C@@H](NC(=O)c4ccccc4)c4ccccc4)C(C)=C1C3(C)C)[C@]1(OC(C)=O)CO[C@@H]1C[C@@H]2O [Paclitaxel, paclitaxel] | 20.1 µg/mL (≈ 23.5 µM) | 36.8 µg/mL (≈ 43.1 µM) | 30.9 µg/mL (≈ 36.2 µM) | 46 µg/mL (≈ 53.9 µM) | 31.9 µg/mL (≈ 37.4 µM) | 56.5 µg/mL (≈ 66.2 µM) | significantly suppressed the tumor growth in a similar manner |

— US20080113042A1, “PHARMACEUTICAL COMPOSITION AND METHOD FOR CANCER TREATMENT BASED ON COMBINATIONAL USE OF CONVENTIONAL ANTICANCER AGENTS AND GERANIUM OIL OR COMPOUNDS THEREOF” (priority 2006, published 2008)
